Earlier results in patent publication US20100022659A1, “Methods and Compositions for the Treatment of CNS-Related Conditions” (priority 2004, published 2010).
Where two headings read alike, the source gives them in different places.

Conditions: humans, cited from earlier work
[1] = MAO inhibitors/GAPDHais, Table 2

Compound | Human PK (NMDAr antagonists, Table 1) [h] | Human PK [1] [h]
CC12CC3CC(C)(C1)CC(N)(C3)C2 [Memantine, 1-amino-3,5-dimethyladamantane] | 56 | –
C#CCN[C@@H]1CCc2ccccc21 [N-propargyl-1(R)-aminoindan/Rasageline, N-propargyl-1(R)-aminoindan] | – | 1.8
CC(N)C12CC3CC(CC(C3)C1)C2 (stereo not shown) [Rimantadine, 1-(1-aminoethyl)adamantane] | 25 | –
Desmethyldeprenyl | – | 3.8 to 9.5
